Measurements from the supplement of paper PMC10307832.

Assays:
Experiment in all cases: relative viability (nuclei count vs DMSO), 5 days (fraction); higher = more cells survive
BAY61-3606 + Navitoclax = compound: COC1=C(C=C(C=C1)C2=CC3=NC=CN3C(=N2)NC4=C(C=CC=N4)C(=O)N)OC [BAY61-3606] + CC1(C)CCC(c2ccc(Cl)cc2)=C(CN2CCN(c3ccc(C(=O)NS(=O)(=O)c4ccc(N[C@H](CCN5CCOCC5)CSc5ccccc5)c(S(=O)(=O)C(F)(F)F)c4)cc3)CC2)C1 [Navitoclax] (partner 0.5 µM)
Outline: (§1)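 Dosing by pin tool came one day after lung cancer cell lines were seeded in 1536-well plates, using either one drug or a fixed anchor-drug dose plus five library-drug doses (not always all listed) in √10 steps. After 5 days, nuclei were counted on 4× images. Relative viability is treated-well nuclei count divided by vehicle-well nuclei count, and values are medians of duplicate plates.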

BAY61-3606 + Lapatinib = compound: COC1=C(C=C(C=C1)C2=CC3=NC=CN3C(=N2)NC4=C(C=CC=N4)C(=O)N)OC [BAY61-3606] + CS(=O)(=O)CCNCc1ccc(-c2ccc3ncnc(Nc4ccc(OCc5cccc(F)c5)c(Cl)c4)c3c2)o1 [Lapatinib] (partner 2 µM)
Outline: as §1

Doxorubicin + Luminespib = compound: COc1cccc2c1C(=O)c1c(O)c3c(c(O)c1C2=O)C[C@@](O)(C(=O)CO)C[C@@H]3O[C@H]1C[C@H](N)[C@H](O)[C@H](C)O1 [Doxorubicin] + CCNC(=O)c1noc(-c2cc(C(C)C)c(O)cc2O)c1-c1ccc(CN2CCOCC2)cc1 [Luminespib] (partner 0.01 µM)
Outline: as §1

Doxorubicin + Dasatinib = compound: COc1cccc2c1C(=O)c1c(O)c3c(c(O)c1C2=O)C[C@@](O)(C(=O)CO)C[C@@H]3O[C@H]1C[C@H](N)[C@H](O)[C@H](C)O1 [Doxorubicin] + Cc1nc(Nc2ncc(C(=O)Nc3c(C)cccc3Cl)s2)cc(N2CCN(CCO)CC2)n1 [Dasatinib] (partner 0.075 µM)
Outline: as §1

Row | Cell Line | relative viability (BAY61-3606 + Navitoclax; first compound 0.02 µM) | relative viability (BAY61-3606 + Navitoclax; first compound 0.06325 µM) | relative viability (BAY61-3606 + Navitoclax; first compound 0.2 µM) | relative viability (BAY61-3606 + Navitoclax; first compound 0.6325 µM) | relative viability (BAY61-3606 + Navitoclax; first compound 2 µM) | relative viability (BAY61-3606 + Lapatinib; first compound 0.02 µM) | relative viability (BAY61-3606 + Lapatinib; first compound 0.06325 µM) | relative viability (BAY61-3606 + Lapatinib; first compound 0.2 µM) | relative viability (BAY61-3606 + Lapatinib; first compound 0.6325 µM) | relative viability (BAY61-3606 + Lapatinib; first compound 2 µM) | relative viability (Doxorubicin + Luminespib; first compound 0.001 µM) | relative viability (Doxorubicin + Luminespib; first compound 0.003162 µM) | relative viability (Doxorubicin + Luminespib; first compound 0.01 µM) | relative viability (Doxorubicin + Luminespib; first compound 0.03162 µM) | relative viability (Doxorubicin + Luminespib; first compound 0.1 µM) | relative viability (Doxorubicin + Dasatinib; first compound 0.001 µM) | relative viability (Doxorubicin + Dasatinib; first compound 0.003162 µM) | relative viability (Doxorubicin + Dasatinib; first compound 0.01 µM) | relative viability (Doxorubicin + Dasatinib; first compound 0.03162 µM) | relative viability (Doxorubicin + Dasatinib; first compound 0.1 µM)
1 | NCI-H2405 | 0.904 | 0.669 | 0.857 | 1.08 | 0.655 | 1.26 | 0.886 | 1.05 | 1.14 | 1.07 | 0.572 | 0.701 | 0.778 | 0.599 | 0.6 | 0.187 | 0.208 | 0.243 | 0.207 | 0.177
2 | NCI-H1395 | 1.26 | 1.04 | 1.49 | 1.35 | 0.966 | 1.13 | 1.08 | 1.34 | 0.98 | 0.973 | 0.674 | 0.765 | 0.476 | 0.697 | 0.648 | 0.415 | 0.422 | 0.389 | 0.398 | 0.376
3 | 201T | 1.22 | 1.2 | 1.23 | 1.21 | 1.3 | 1.08 | 1.01 | 1.11 | 1.03 | 0.996 | 1.03 | 1.08 | 1.04 | 1.01 | 1.11 | 0.537 | 0.636 | 0.561 | 0.583 | 0.546
4 | PC-3 [JPC-3] | 0.826 | 0.849 | 0.773 | 0.805 | 0.776 | 0.468 | 0.482 | 0.478 | 0.436 | 0.471 | 0.661 | 0.748 | 0.683 | 0.714 | 0.615 | 1.02 | 0.975 | 0.935 | 0.946 | 0.97
5 | HCC-15 | 0.796 | 0.703 | 0.691 | 0.702 | 0.683 | 0.891 | 0.921 | 0.851 | 0.875 | 0.792 | – | 0.304 | 0.312 | 0.231 | 0.222 | – | 0.654 | 0.493 | 0.191 | 0.0861
6 | NCI-H1650 | 1.21 | 1.19 | 1.16 | 1.27 | 0.751 | 0.862 | 0.671 | 0.8 | 0.849 | 0.517 | 0.201 | 0.182 | 0.203 | 0.223 | 0.182 | 0.37 | 0.321 | 0.301 | 0.149 | 0.11
7 | LCLC-97TM1 | 0.393 | – | 0.386 | 0.417 | 0.326 | 1.23 | – | 1.05 | 1.05 | 0.864 | 0.718 | 0.818 | 0.677 | 0.772 | 0.834 | 0.836 | 0.776 | 0.831 | 0.734 | 0.884
8 | NCI-H647 | 1.21 | 1.05 | 1.04 | 1.26 | 0.663 | 1.13 | 1.25 | 1.12 | 1.11 | 0.86 | 0.117 | 0.13 | 0.11 | 0.185 | 0.149 | 0.186 | 0.212 | 0.166 | 0.152 | 0.0503
9 | EPLC-272H | 1.1 | 1 | 0.934 | 1.19 | 1.19 | 1.18 | 0.809 | 0.876 | 0.878 | 0.808 | 0.209 | 0.262 | 0.339 | 0.259 | 0.253 | 0.41 | 0.418 | 0.371 | 0.417 | 0.343
